Assay results from patent US20230340037A1, “INHIBITORS OF ?-SYNUCLEIN AGGREGATION AND USES THEREOF” (U[…] DE BARCELONA, priority 2020, published 2023).

Legend:
[1] = tested on: SH-SY5Y neuroblastoma cells; experiment: Toxic a-synuclein oligomer induced increase of intracellular reactive oxygen species; format: cell-based, human
Method: A stock solution of 80 μM toxic a-synuclein oligomer (prepared as described in example 3) and a stock solution of 80 μM toxic a-synuclein oligomer and 80 μM of the tested inhibitor are prepared in PBS and incubated for 15 min at 20° C. before being added to cell-containing wells as described below.
Human SH-SY5Y neuroblastoma cells (ATCC, #CRL-2266) cultured in growth medium (Eagle's Minimum Essential Medium (EMEM) supplemented with 10% […] (FBS)) are seeded onto a glass slide mounted with 8 removable wells (e.g., Nunc Lab-Tek II Chamber Slide System, #154941) with 0.5 mL cells/well at 0.5×10^6 cells/mL in growth medium for 24 h at 37° C. and 5% C02. […]
Then, a fluorogenic reagent for oxidative stress detection in live cells (e.g., a CellRox® reagent from Invitrogen, Carlsbad, USA, such as CellRox® Green) is added (final concentration of CellRox® Green 5 μM). […] The intracellular fluorescence of the treated SH-SY5Y cells is then analyzed with a confocal microscope (e.g. a Leica TCS SP5, Leica Microsystems, Wetzlar, Germany, with a HCX PL APO 63×1.4 oil immersion objective) equipped with a camera, using wave lengths for excitation and detection which are suitable for the used oxidative stress detection agent (for CellRox® Green: excitation at 488 nm and detection at 515-560 nm). […] ROS fluorescence are calculated from mean of 100 cells.

a-synuclein = biological target: T1, a-synuclein (Homo sapiens, UniProt P37840); experiment: a-synuclein aggregation kinetics assay (thioflavin-T); format: biochemical; details: 70 μM a-synuclein, Th-T, equimolar and substoichiometric peptide concentrations, 32 h
T1 construct: made in house; host or cells: Escherichia coli BL21 (DE3), pET21a
Method: a-synuclein aggregation can be monitored as described in Pujols et al., 2018. Specifically, inhibition of in vitro a-synuclein aggregation at equimolar concentrations of a-synuclein and the tested inhibitor can be determined as follows:
A 96 well microtiter plate is prepared to contain, in each well, a Teflon polyball (3.175 mm in diameter, e.g., from Polysciences Europe GmbH, Eppelheim, Germany) and 150 μl of PBS containing 70 μM a-synuclein (prepared from diluting the 0.22 μm-filtered 210 μM a-synuclein solution described in example 1), 40 μM thioflavin-T and 70 μM of the tested inhibitor. 150 μl/well of PBS containing 70 μM a-synuclein and 40 μM thioflavin-T is used as a control. […] Every two hours, the fluorescence intensity is measured (e.g. using a Victor3.0 Multilabel Reader, PerkinElmer Waltham, MA, USA) by exciting the mixtures at 430-450 nm and measuring the emission intensity at 480-510 nm. […]
Parallel wells (e.g. triplicates) are prepared for each tested inhibitor and the control. For the measurement of each time interval, the measured fluorescence intensity of the respective parallel wells is averaged and then normalized to the maximum fluorescence of the control (a-synuclein without inhibitor) and fitted to the Finke-Watzky curve, accounting for fibril elongation and secondary nucleation. […]

[2] = biological target: T2, toxic a-synuclein oligomer (type B*) (Homo sapiens, UniProt P37840, N122C); experiment: dcFCCS and smFRET analysis of binding to toxic a-synuclein oligomer; details: peptide labeled with Atto647N; cross-correlation signal and smFRET events
T2 construct: made in house; host or cells: Escherichia coli BL21 (DE3), pET21a
Method: (§1) The relative binding affinities of inhibitors of the present disclosure to toxic a-synuclein oligomers, a-synuclein fibrils, and monomeric a-synuclein can be determined via […] (dcFCCS) as follows.
(§2) Dual-Colour FCCS (dcFCCS) experiments are performed on a Time-Resolved Fluorescence confocal microscope (e.g., MT200 from PicoQuant, Berlin, Germany) with a Time-Correlated Single Photon Counting (TCSPC) unit. Pulsed Interleaved Excitation (PIE) is used at laser powers of 6 μW (481 nm) and 5 μW (637 nm) measured after the dichroic mirror for optimal count rates while avoiding photobleaching and saturation. The coverslip is placed directly on the immersion water on top of the objective (e.g., Super Apochromat 60×NA 1.2 objective with a correction collar). The dichroic 488/640 nm is chosen as the main beam splitter. A 50 μm pinole is used. The emission light beam is split by a 50/50 beamsplitter into 2 detection paths. […] The software is also used for fitting the FCS and FCCS data as well as for a PIE-FRET analysis of the data from which the FRET efficiency (E) is calculated.
(§3) The binding of inhibitors of the present disclosure to toxic a-synuclein oligomers, a-synuclein fibrils, and monomeric a-synuclein can be determined via Förster resonance energy transfer (smFRET) as follows. […]

[3] = biological target: T3, non-toxic a-synuclein oligomer (type A*) (Homo sapiens, UniProt P37840, N122C); experiment: dcFCCS and smFRET analysis of binding to non-toxic a-synuclein oligomer; details: peptide labeled with Atto647N
T3 construct: made in house; host or cells: Escherichia coli BL21 (DE3), pET21a

a-synuclein fibrils = biological target: T4, a-synuclein fibrils (Homo sapiens, UniProt P37840, N122C); experiment: dcFCCS and smFRET analysis of binding to a-synuclein fibrils; details: peptide labeled with Atto647N; cross-correlation signal and smFRET events
T4 construct: made in house; host or cells: Escherichia coli BL21 (DE3), pET21a
Method: as §1, §2, §3

a-synuclein monomer = biological target: T5, a-synuclein monomer (Homo sapiens, UniProt P37840, N122C); experiment: dcFCCS and smFRET analysis of binding to a-synuclein monomer; details: peptide labeled with Atto647N
T5 construct: made in house; host or cells: Escherichia coli BL21 (DE3), pET21a
Method: as §1, §2, §3

Row | Compound | cytotoxicity of toxic aS oligomers ([1]; neuroblastoma cell culture) | inhibition of a-synuclein aggregation (a-synuclein) | interaction with toxic a-synuclein oligomer [2] | interaction with non-toxic a-synuclein oligomer [3] | generation of reactive oxygen species ([1]; coincubated with a-synuclein toxic oligomers, 10 μM) | interaction with a-synuclein fibrils (a-synuclein fibrils) | interaction with a-synuclein monomer (a-synuclein monomer)
1 | CSCC[C@H](N)C(=O)N[C@@H](CCC(=O)O)C(=O)N[C@@H](Cc1ccccc1)C(=O)N[C@H](C(=O)N[C@@H](C)C(=O)N[C@@H](CCCCN)C(=O)N[C@@H](CC(C)C)C(=O)N[C@@H](Cc1ccccc1)C(=O)N[C@@H](CCCCN)C(=O)N[C@@H](Cc1ccccc1)C(=O)N[C@@H](Cc1ccccc1)C(=O)N[C@@H](CCCCN)C(=O)N[C@@H](CC(=O)O)C(=O)N[C@@H](CC(C)C)C(=O)N[C@@H](CC(C)C)C(=O)NCC(=O)N[C@@H](CCCCN)C(=O)N[C@@H](Cc1ccccc1)C(=O)N[C@@H](CC(C)C)C(=O)NCC(=O)N[C@@H](CC(N)=O)C(=O)N[C@@H](CC(N)=O)C(=O)O)C(C)C [PSMα3] | reduced cytotoxicity | – | – | – | – | – | –
2 | LL-37 | – | inhibit a-synuclein aggregation | interact with | not | reduce the generation of reactive oxygen species | interact with | not
